PMC5103216, “Novel Agonist Bioisosteres and Common Structure-Activity Relationships for The Orphan G Protein-Coupled Receptor GPR139” (Scientific Reports, 2016)
pEC50: −log10 of the molar value.

What was measured:
Type in all cases: cell-based
M1 receptor [1] = biological target: T1, M1 receptor (Homo sapiens, UniProt P11229); experiment: cAMP dynamic 2 assay measuring Gs activation in CHO-M1 (control)
T1 construct: host or cells: CHO-k1
T1 sequence (P11229 1-460): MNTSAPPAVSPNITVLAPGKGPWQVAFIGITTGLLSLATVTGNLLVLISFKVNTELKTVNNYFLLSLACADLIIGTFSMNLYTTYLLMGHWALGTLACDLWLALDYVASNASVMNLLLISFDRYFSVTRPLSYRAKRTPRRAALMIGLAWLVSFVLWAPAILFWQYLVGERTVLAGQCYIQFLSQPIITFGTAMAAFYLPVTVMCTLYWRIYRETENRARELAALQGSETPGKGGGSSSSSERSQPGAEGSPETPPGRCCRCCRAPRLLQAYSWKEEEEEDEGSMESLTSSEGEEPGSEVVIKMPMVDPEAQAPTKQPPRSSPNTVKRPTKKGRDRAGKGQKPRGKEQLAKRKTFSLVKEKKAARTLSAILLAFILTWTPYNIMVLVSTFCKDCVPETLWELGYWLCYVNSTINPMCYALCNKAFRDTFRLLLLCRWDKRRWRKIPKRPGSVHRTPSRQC
Method: (§1) The cAMP assay was performed as described in the work by Thomsen et al.[28] with few modifications. Breifly, CHO-139 and CHO-M1 was detached and resuspended to a concentration of 1 million cells/mL. 5 μL 2x concentrated compound (for Gs: +100 μM IBMX and for Gi: +100 μM IBMX +10 μM forskolin (Fsk)) and 5 μL cell suspension (5,000 cells/well) was mixed. The plate was sealed and incubated at room temperature for 30 min. Next, 10 μL detection reagents (lysis buffer containing 2.5% Eu^3+-anti-cAMP antibody and 2.5% cAMP-d2) was added and the plate was incubated for 1 hour at room temperature. The plate was read on an Envision (PerkinElmer, Waltham, MA, USA). The TR-FRET 665 nm/615 nm ratio, which is inversely proportional with the cAMP production, was used to determination the concentration of the cAMP response. […]
(§2) Supplementary Figure 1. cAMP dynamic 2 assay measuring Gs activation. 5,000 cells/well of CHO-139 (pink bars) or CHO-M1 (blue bars) cells are
(§3) incubated with the indicated compounds for 30 min at room temperature in the presence of 50 µM IBMX. 5 µM and 10 µM forskolin (Fsk) serves as positive
(§4) controls. The responses are one representative out of at two independent experiments performed in triplicates. Data points are means ± SD. […]
(§5) Data points are means ± SD.

GPR139 [2] = biological target: T2, GPR139 (Homo sapiens, UniProt Q6DWJ6); experiment: IP-One HTRF assay measuring Gq activation in CHO-139; conditions: IP-One HTRF assay, CHO-139, 20 mM LiCl
T2 sequence (Q6DWJ6 1-353): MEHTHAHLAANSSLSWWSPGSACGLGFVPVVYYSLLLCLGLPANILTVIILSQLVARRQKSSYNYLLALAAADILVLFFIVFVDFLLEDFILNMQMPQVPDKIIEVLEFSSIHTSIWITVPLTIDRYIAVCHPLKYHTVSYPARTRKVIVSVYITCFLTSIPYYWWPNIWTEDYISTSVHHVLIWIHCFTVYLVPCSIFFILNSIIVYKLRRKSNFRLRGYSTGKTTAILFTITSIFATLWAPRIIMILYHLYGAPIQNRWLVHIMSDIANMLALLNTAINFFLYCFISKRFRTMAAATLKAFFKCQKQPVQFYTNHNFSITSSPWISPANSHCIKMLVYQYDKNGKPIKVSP
Method: (§6) Figure 3 IP-One HTRF® assay measuring Gq activation. Concentration-response curves of 1a, 7c (racemic), L-Trp, L-Phe, DL43, DL126, DL24, DL22, DL132 and DL130 on (A) CHO-139 and (B) CHO-M1 in the IP-One assay (final conc of LiCl = 20 mM). The dotted line represent the [IP1] response from (A) 10 μM 1a and (B) 1 μM carbachol, which is an agonist for the muscarinic acethylcholine receptor M1 that activates the Gq coupled pathway. The graphs are means ± SEM based on three independent experiments performed in triplicates.
(§7) The IP-One assay was performed as described in the work by Thomsen et al.[28], with few modifications. Breifly, CHO-139 and CHO-M1 were detached and re-suspended to a concentration of 10 million cells/mL. 5 μL 2x concentrated compound (+40 mM LiCl) and 5 μL cell suspension (50,000 cells/well) was mixed. The plate was sealed and incubated at 37 °C for 1 hour. Next, 10 μL detection reagents (lysis buffer containing 2.5% Eu^3+-anti-IP1 antibody and 2.5% IP1-d2) was added and the plate was incubated for 1 hour at room temperature. The plate was read on an Envision (PerkinElmer, Waltham, MA, USA). The time resolved-fluorescence resonance energy transfer (TR-FRET) 665 nm/615 nm ratio, which is inversely proportional to the inositol monophosphate (IP1) accumulation, was used to determine the concentration of the IP1 response.

GPR139 [3] = biological target: T2, GPR139; experiment: cAMP dynamic 2 assay measuring Gs activation in CHO-139
Method: as §1, §2, §3, §4, §5

M1 receptor [4] = biological target: T1, M1 receptor; experiment: IP-One HTRF assay in CHO-M1 (control)
Method: as §6, §7

GPR139 [5] = biological target: T2, GPR139; experiment: cAMP dynamic 2 assay measuring Gi activation (forskolin) in CHO-139; conditions: CHO-139
Method: as §1
Supplementary Figure 2. cAMP dynamic 2 assay measuring Gi activation. 5,000 cells/well of CHO-139 (pink bars) or CHO-M1 (blue bars) cells are
incubated with the indicated compounds for 30 min at room temperature in the presence of 50 µM IBMX and 5 uM Fsk (expect “buffer (-Fsk) where only 50
µM IBMX is present). The straight line indicate the level of cAMP upon activation with 5 uM Fsk, and the grey area ±10% of the response. The responses are
one representative out of at two independent experiments performed in triplicates. Data points are means ± SD.

| Compound | Gs response (cAMP) (M1 receptor [1]) | pEC50 (GPR139 [2]) | Gs response (cAMP) (GPR139 [3]) | IP1 response in CHO-M1 cells (M1 receptor [4]) | Inhibition of the cAMP response induced by 5 μM forskolin (Gi), in words (GPR139 [5]) |
| --- | --- | --- | --- | --- | --- |
| COc1cc(OC)cc(C(=O)NNC(=O)C2CCCc3ccccc32)c1 (stereo not drawn) [DL24] | None of the tested compounds induced Gs response | 6.12 | None of the tested compounds induced Gs response | no response is seen in CHO-M1 cells | none of the tested compounds were able to inhibit the cAMP response |
| CCn1c(C)nc2cc(C(=O)NNC(=O)Cc3cccc4ccccc34)ccc21 [DL43] | None of the tested compounds induced Gs response | 5.02 | None of the tested compounds induced Gs response | no response is seen in CHO-M1 cells | none of the tested compounds were able to inhibit the cAMP response |
| O=C(NCC(=O)N1CCCC1c1ccccc1)c1ccc2c(c1)OCO2 (stereo not drawn) [DL132] | None of the tested compounds induced Gs response | 5.38 | None of the tested compounds induced Gs response | no response is seen in CHO-M1 cells | none of the tested compounds were able to inhibit the cAMP response |
| O=C(CN1CCCc2ccccc21)NNC(=O)c1ccc2c(c1)OCO2 [DL22] | None of the tested compounds induced Gs response | 5.38 | None of the tested compounds induced Gs response | no response is seen in CHO-M1 cells | none of the tested compounds were able to inhibit the cAMP response |
| O=C(Cc1cccc2ccccc12)NNC(=O)c1ccc2c(c1)OCO2 [DL126] | None of the tested compounds induced Gs response | 5.25 | None of the tested compounds induced Gs response | no response is seen in CHO-M1 cells | none of the tested compounds were able to inhibit the cAMP response |
| O=C(CNC(=O)c1ccc2c(c1)OCO2)NC1CCSc2ccc(F)cc21 (stereo not drawn) [DL130] | None of the tested compounds induced Gs response | 5.30 | None of the tested compounds induced Gs response | no response is seen in CHO-M1 cells | none of the tested compounds were able to inhibit the cAMP response |
